Assay results taken from patent US7846935B2, “Furo[3,2-B]pyrrol-3-one derivatives and their use as cysteinyl proteinase inhibitors” (Amura Therapeutics Limited, priority 2006, dated 2010).
Like-named read-outs stand apart in the source and are kept apart here.

Key:
human osteoclasts [1] = assay: Human osteoclast resorption assay; assay type: cell-based
Method: Bone resorption was studied using a model where human osteoclast precursor cells were cultured on bovine bone slices for 9 days and allowed to differentiate into bone-resorbing osteoclasts. The formed mature osteoclasts were then allowed to resorb bone. The assay was performed by Pharmatest Services Ltd, Itainen Pitkakatu 4C, Turku, Finland. After the culture period, bone collagen degradation products were quantified from the culture medium as an index of bone resorption. Inhibitor compounds were added into the cell cultures after the differentiation period and their effects on the resorbing activity of mature osteoclasts were determined. The studies included a baseline group without added compounds and a positive control group where a potent cathepsin K inhibitor E-64 was added.
Human peripheral blood monocytes were suspended to culture medium and allowed to attach to bovine bone slices. The bone slices were transferred into 96-well tissue culture plates containing culture medium with appropriate amounts of important growth factors favouring osteoclast differentiation, including M-CSF, RANK-ligand and TGF-β. The cells were incubated in a CO2 incubator in humidified atmosphere of 95% air and 5% carbon dioxide at 37° C. At day 7 when osteoclast differentiation was complete, the culture medium was replaced with culture medium containing conditions favouring osteoclast activity. The cell culture was continued for an additional 2 days, during which the formed mature osteoclasts were allowed to resorb bone in the presence of vehicle, control inhibitor (E64) or test compounds. At the end of the culture, bone collagen degradation products released into the culture medium were determined using a commercially available ELISA method (CrossLaps® for culture, Nordic Bioscience, Herlev, Denmark) as an index of bone resorption (see Bagger, Y. Z. et al, J. Bone. Miner. Res. 14 (suppl. 1), S370).

[2] = molecular target: T1, Human recombinant cathepsin K (Homo sapiens, UniProt P43235); assay: In vitro cathepsin Ki inhibition measurements; assay type: biochemical; conditions: Table 1, read-out: In vitro Ki (nM) vs Cath K
T1 construct: B. Turk, Josef, Stefan Institute, Ljubljana, Slovenia
T1 sequence (P43235 115-329): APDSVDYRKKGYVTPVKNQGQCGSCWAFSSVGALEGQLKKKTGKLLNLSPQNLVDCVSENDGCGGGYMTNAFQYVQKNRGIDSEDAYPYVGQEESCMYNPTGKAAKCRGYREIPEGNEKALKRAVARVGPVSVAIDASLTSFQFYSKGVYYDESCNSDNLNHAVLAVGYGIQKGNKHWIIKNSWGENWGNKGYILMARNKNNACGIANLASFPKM
Method: Stock solutions of substrate or inhibitor were made up to 10 mM in 100% dimethylsulfoxide (DMSO) (Rathburns, Glasgow, U.K.) and diluted as appropriately required. In all cases the DMSO concentration in the assays was maintained at less than 1% (vol./vol.). The equilibrium inhibition constants (Ki^ss) for each compound were measured under steady-state conditions monitoring enzyme activity as a function of inhibitor concentration. The values were calculated on the assumption of pure competitive behaviour (Cornish-Bowden, A. Fundamentals of enzyme kinetics Portland Press; 1995, 93-128). Human recombinant cathepsin K (0.25 nM final; B. Turk, Josef, Stefan Institute, Ljubljana, Slovenia), was routinely assayed in 100 mM sodium acetate; pH 5.5 containing 1 mM EDTA, 10 mM L-cysteine and 1.8 μM Z-Leu-Arg-AMC ([S]=KM).
The apparent inhibition constant (Ki) for each compound was determined on the basis that inhibition was reversible and occurred by a pure-competitive mechanism. The Ki values were calculated, from the dependence of enzyme activity as a function of inhibitor concentration, by direct regression analysis (Prism v 3.02) using Equation 2 (Cornish-Bowden, A., 1995).
In situations where the apparent dissociation constant (Ki^app) approached the enzyme concentrations, the Ki^app values were calculated using a quadratic solution in the form described by Equation 3 (Morrison, J. F. Trends Biochem. Sci., 7, 102-105, 1982; Morrison, J. F. Biochim. Biophys. Acta, 185, 269-286, 1969; Stone, S. R. and Hofsteenge, J. Biochemistry, 25, 4622-4628, 1986).
Curves were fitted by non-linear regression analysis (Prism) using a fixed value for the enzyme concentration. Equation 4 was used to account for the substrate kinetics, where ‘Ki’ is the inhibition constant, ‘[So]’ is the initial substrate concentration and ‘KM^app’ is the apparent macroscopic binding (Michaelis) constant for the substrate (Morrison, 1982).

rat osteoclasts = assay: Rat osteoclast resorption assay; assay type: cell-based
Method: Bone resorption was studied using a model where mature osteoclasts derived from rat bone were cultured on bovine bone slices for 3 days and allowed to resorb bone in the presence of inhibitor, positive control (E-64) or vehicle. More specifically, tibia, femori and humeri were removed from 1 day old rat pups. The endosteal surfaces of the bones were scraped with a scapelto release osteoclasts into the culture medium and the osteoclasts were allowed to attach to bovine bone slices. After the culture period, bone collagen degradation products were quantified from the culture medium as an index of bone resorption. The assay was performed by Pharmatest Services Ltd, Itäinen Pitkakatu 4C, Turku, Finland.

Plasma incubations = assay type: in vitro ADME; conditions: 37° C., 25 μM
Method: Aliquots were removed at 2 and 60 minutes and quenched with an equal volume of cold acetonitrile. After mixing vigorously, the precipitated protein matter was removed by filtration (Multiscreen Solvinert filter plates, Millipore, Bedford, Mass., USA) and the filtrate analysed by reverse phase HPLC with mass spectrometric detection, using single ion monitoring of the [M+H]^+ species. Metabolic turnover was determined by comparison of peak areas from the ion chromatograms of the parent compound at 2 and 60 minutes and expressed as percent remaining at 1 hour.

[3] = Liver microsomal incubations; assay type: in vitro ADME; conditions: human liver microsomes, 25 μM, NADPH
Method: All liver microsome incubations were carried out in 50 mM potassium phosphate buffer at pH 7.4, with a final microsomal protein concentration of 0.5 mg/mL. […] In brief, compounds were added to the incubation buffer along with the liver microsomes and incubated at 37° C. for 10 minutes. The reaction was then initiated by the addition of NADPH, previously dissolved in incubation buffer, to give a final concentration of 1 mM and re-incubated at 37° C. Aliquots were removed at 2 and 60 minutes and quenched with an equal volume of cold acetonitrile. After mixing vigorously, the precipitated protein matter was removed by filtration (Multiscreen Solvinert filter plates, Millipore, Bedford, Mass., USA) and the filtrate analysed by reverse phase HPLC with mass spectrometric detection, using single ion monitoring of the [M+H]^+ species. Metabolic turnover was determined by comparison of peak areas from the ion chromatograms of the parent compound at 2 and 60 minutes and expressed as percent remaining at 1 hour.

LogD determinations = assay type: physicochemical; conditions: 1-octanol/PBS; PBS pH 7.4/1-octanol, ion-count method
Method: LogD(PBS) determinations were performed in 96 well microtitre plates using a miniaturised “shake-flask” method. […] The plates were then capped and mixed vigorously for 1 hour on a microtitre plate shaker, after which they were left to stand, allowing the PBS and octanol phases to separate. The PBS layer was analysed by reverse phase HPLC with mass spectrometric detection, using single ion monitoring of the [M+H]^+ species.
Where AUCstd and AUCpbs are the peak areas from the standard and test ion chromatograms respectively.

human osteoclasts [4] = conditions: human osteoclast, literature value; cited from earlier work
[5] = human osteoclast bone resorption, read-out: Cell-based % Inh. @ 1 μM Human
[6] = human osteoclast, read-out: inhibition of human osteoclast activity
[7] = 1 μM, rat osteoclast bone resorption, read-out: Cell-based % Inh. @ 1 μM Rat
[8] = rat osteoclast, 1 μM per table 1, read-out: rat osteoclast data (inhibition)

| Compound | Ki [2] | Human Plasma Stability % rem. @ 1 h (Plasma incubations) | HLM % rem. @ 1 h [3] | logD (LogD determinations) | inhibition at 1 µM (human osteoclasts [1]; [5]) | inhibition at 1 µM (human osteoclasts [1]; [6]) | inhibition at 1 µM (rat osteoclasts; [7]) | inhibition at 1 µM (rat osteoclasts; [8]) | Cell-based % Inh. @ 1 μM Human (Lit.) (human osteoclasts [4]) |
| --- | --- | --- | --- | --- | --- | --- | --- | --- | --- |
| CC(C)C[C@H](NC(=O)c1ccc(N2CCN(C(C)C)CC2)cc1)C(=O)N1CC[C@H]2OCC(=O)[C@H]21 [EXAMPLE 4, 4-(4-isopropylpiperazin-1-yl)-N—((S)-4-methyl-1-oxo-1-((3aS,6aR)-3-oxodihydro-2H-furo[3,2-b]pyrrol-4(5H,6H,6aH)-yl)pentan-2-yl)benzamide] | 19 nM | 91% | 88% | 1.21 | 74% | 73 to 82% | 25% | 25% |  |
| CC(C)C[C@H](NC(=O)c1ccc(N2CCN(C)CC2)cc1)C(=O)N1CC[C@H]2OCC(=O)[C@H]21 [EXAMPLE 1, 4-(4-methylpiperazin-1-yl)-N—((S)-4-methyl-1-oxo-1-((3aS,6aR)-3-oxodihydro-2H-furo[3,2-b]pyrrol-4(5H,6H,6aH)-yl)pentan-2-yl)benzamide, reference compound] |  | 95% | 95% |  | 55% |  |  |  |  |
| CCCN1CCN(c2ccc(C(=O)N[C@@H](CC(C)C)C(=O)N3CC[C@H]4OCC(=O)[C@H]43)cc2)CC1 [EXAMPLE 3, N—((S)-4-methyl-1-oxo-1-((3aS,6aR)-3-oxo-dihydro-2H-furo[3,2-b]pyrrol-4(5H,6H,6aH)-yl)pentan-2-yl)-4-(4-propylpiperazin-1-yl)benzamide] | 18 nM | 89% | 83% | 1.66 | 73% | 73 to 82% | 65% | 65% |  |
| COCCN1CCC(c2ccc(C(=O)N[C@@H](CC(C)C)C(=O)N3CC[C@H]4OCC(=O)[C@H]43)cc2)CC1 [EXAMPLE 8, 4-(1-(2-methoxyethyl)piperidin-4-yl)-N—((S)-4-methyl-1-oxo-1-((3aS,6aR)-3-oxodihydro-2H-furo[3,2-b]pyrrol-4(5H,6H,6aH)-yl)pentan-2-yl)benzamide] | 36 nM | 98% | 88% | 0.61 | 23% | 23% | 52% | 52% |  |
| CC(C)C[C@H](NC(=O)c1ccc(C(C)(C)C)cc1)C(=O)N1CC[C@H]2OCC(=O)[C@H]21 [prior art compound 23, reference compound] |  | 75% | 70% |  |  |  |  |  | Lit. 60% |
| COCCN1CCN(c2ccc(C(=O)N[C@@H](CC(C)C)C(=O)N3CC[C@H]4OCC(=O)[C@H]43)cc2)CC1 [EXAMPLE 5, 4-(4-(2-methoxyethyl)piperazin-1-yl)-N—((S)-4-methyl-1-oxo-1-((3aS,6aR)-3-oxodihydro-2H-furo[3,2-b]pyrrol-4(5H,6H,6aH)-yl)pentan-2-yl)benzamide] | 29 nM | 98% | 90% | 0.9 | 57% | 57% | 65% | 65% |  |

The remaining compounds from weak to strong by Ki [2], led by results:

| Ki [2] | Human Plasma Stability % rem. @ 1 h (Plasma incubations) | HLM % rem. @ 1 h [3] | logD (LogD determinations) | Compound | inhibition at 1 µM (human osteoclasts [1]; [5]) | inhibition at 1 µM (human osteoclasts [1]; [6]) | inhibition at 1 µM (rat osteoclasts; [7]) | inhibition at 1 µM (rat osteoclasts; [8]) | Cell-based % Inh. @ 1 μM Human (Lit.) (human osteoclasts [4]) |
| --- | --- | --- | --- | --- | --- | --- | --- | --- | --- |
| 15 nM | 93% | 88% | 0.74 | CCN1CCN(c2ccc(C(=O)N[C@@H](CC(C)C)C(=O)N3CC[C@H]4OCC(=O)[C@H]43)cc2)CC1 [EXAMPLE 2, 4-(4-ethylpiperazin-1-yl)-N—((S)-4-methyl-1-oxo-1-((3aS,6aR)-3-oxodihydro-2H-furo[3,2-b]pyrrol-4(5H,6H,6aH)-yl)pentan-2-yl)benzamide] | 58% | 58% | 40% |  |  |
| 8 nM | 93% | 82% | 1.99 | CC(C)C[C@H](NC(=O)c1ccc(C2CCN(C3CC3)CC2)cc1)C(=O)N1CC[C@H]2OCC(=O)[C@H]21 [compound 9, 4-(1-cyclopropylpiperidin-4-yl)-N—((S)-4-methyl-1-oxo-1-((3aS,6aR)-3-oxodihydro-2H-furo[3,2-b]pyrrol-4(5H,6H,6aH)-yl)pentan-2-yl)benzamide] |  |  |  |  |  |
| 5 nM | 90% | 83% | 0.95 | CC(C)C[C@H](NC(=O)c1ccc(C2CCN(C3CCC3)CC2)cc1)C(=O)N1CC[C@H]2OCC(=O)[C@H]21 [compound 10, 4-(1-cyclobutylpiperidin-4-yl)-N—((S)-4-methyl-1-oxo-1-((3aS,6aR)-3-oxodihydro-2H-furo[3,2-b]pyrrol-4(5H,6H,6aH)-yl)pentan-2-yl)benzamide] |  |  |  |  |  |
| 4 nM | 93% | 83% | 1.88 | CC(C)C[C@H](NC(=O)c1ccc(N2CCN(C3CC3)CC2)cc1)C(=O)N1CC[C@H]2OCC(=O)[C@H]21 [EXAMPLE 6, 4-(4-cyclopropylpiperazin-1-yl)-N—((S)-4-methyl-1-oxo-1-((3aS,6aR)-3-oxodihydro-2H-furo[3,2-b]pyrrol-4(5H,6H,6aH)-yl)pentan-2-yl)benzamide] | 74% | 73 to 82% | 22% | 22% |  |
| 3 nM | 92% | 81% | 1.88 | CC(C)C[C@H](NC(=O)c1ccc(N2CCN(C3CCC3)CC2)cc1)C(=O)N1CC[C@H]2OCC(=O)[C@H]21 [EXAMPLE 7, 4-(1-cyclobutylpiperazin-4-yl)-N—((S)-4-methyl-1-oxo-1-((3aS,6aR)-3-oxodihydro-2H-furo[3,2-b]pyrrol-4(5H,6H,6aH)-yl)pentan-2-yl)benzamide] | 82% | 73 to 82% | 40% | 40% |  |
